The subject of assay [1] is MV4-11. Kind of assay: Cytotoxicity against human MV4-11 cells assessed as inhibition of cell growth measured after 72 hrs by Celltiter-Glo assay. Format: functional, cell-based. Particulars: MV4-11, 72 h. A general note: ATP-based viability assays read luminescence as a measure of living cells.
Assay [2] relates to MDA-MB-468. Kind of assay: Cytotoxicity against human MDA-MB-468 cells assessed as inhibition of cell growth measured after 72 hrs by Celltiter-Glo assay. Format: functional, cell-based. Particulars: MDA-MB-468, 72 h.
Assay [3] concerns K562. The assay is described as follows: Cytotoxicity against human K562 cells assessed as inhibition of cell growth measured after 72 hrs by Celltiter-Glo assay. Format: functional, cell-based. Particulars: K562, 72 h.
The subject of assay [4] is Hep 3B2. The assay is described as follows: Cytotoxicity against human Hep3B cells assessed as inhibition of cell growth measured after 72 hrs by Celltiter-Glo assay. The class given is functional, cell-based.
In assay [5] the test system is B16. The assay is described as follows: Cytotoxicity against mouse B16 cells assessed as inhibition of cell growth measured after 72 hrs by Celltiter-Glo assay. The class given is functional, cell-based. Particulars: B16, 72 h.
The target of assay [6] is T1, Receptor-type tyrosine-protein kinase FLT3 (Homo sapiens, UniProt P36888).
T1 sequence (P36888 whole entry): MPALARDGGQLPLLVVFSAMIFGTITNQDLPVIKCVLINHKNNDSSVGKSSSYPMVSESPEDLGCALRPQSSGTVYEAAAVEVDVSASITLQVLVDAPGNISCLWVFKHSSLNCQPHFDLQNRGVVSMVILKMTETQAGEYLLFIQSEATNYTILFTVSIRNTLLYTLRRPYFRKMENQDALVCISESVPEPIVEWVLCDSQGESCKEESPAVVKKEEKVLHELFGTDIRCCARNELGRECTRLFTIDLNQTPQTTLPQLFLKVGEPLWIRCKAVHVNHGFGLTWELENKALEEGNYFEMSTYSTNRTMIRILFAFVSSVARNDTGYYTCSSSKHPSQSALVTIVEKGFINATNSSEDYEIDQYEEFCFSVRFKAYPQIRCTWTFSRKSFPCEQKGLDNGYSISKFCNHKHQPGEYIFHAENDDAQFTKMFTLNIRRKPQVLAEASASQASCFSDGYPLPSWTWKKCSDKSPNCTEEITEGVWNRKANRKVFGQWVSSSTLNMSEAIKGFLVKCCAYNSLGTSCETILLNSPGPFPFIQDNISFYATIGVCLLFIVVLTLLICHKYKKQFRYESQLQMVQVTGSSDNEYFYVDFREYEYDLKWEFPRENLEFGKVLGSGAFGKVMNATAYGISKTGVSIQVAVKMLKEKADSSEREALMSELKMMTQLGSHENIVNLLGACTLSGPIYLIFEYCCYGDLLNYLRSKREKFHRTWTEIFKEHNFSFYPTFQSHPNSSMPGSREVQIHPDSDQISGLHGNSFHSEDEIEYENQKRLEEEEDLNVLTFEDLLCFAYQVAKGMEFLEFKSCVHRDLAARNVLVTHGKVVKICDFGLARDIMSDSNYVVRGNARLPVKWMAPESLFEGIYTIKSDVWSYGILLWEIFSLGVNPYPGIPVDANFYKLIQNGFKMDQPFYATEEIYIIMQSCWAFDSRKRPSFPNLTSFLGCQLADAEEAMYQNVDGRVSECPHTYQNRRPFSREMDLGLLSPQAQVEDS
Kind of assay: Inhibition of FLT3 (unknown origin) using MBP as substrate incubated for 40 mins in presence of ATP by ADP-Glo assay. A general note: In ADP-Glo the light output rises with the ADP produced.

Where a name gives a salt, the structure may show the parent alone.

Usually IC50 stands for the concentration that inhibits the measured activity by half. Consider `CCC(=O)[C@@H](C)[C@@H](O)[C@H](C)C[C@@H](C)[C@H]1OC(=O)C[C@@]2(OC)CC=C(C)[C@H](O2)/C(C)=C/CCC[C@@H](O[C@H]2C[C@@H](OC(N)=O)[C@H](O)[C@@H](C)O2)/C=C/[C@H](C)C[C@H]1C`, for which the IC50 in assay [1] amounted to 4.1 µM.

With `CCC(=O)[C@@H](C)[C@@H](O)[C@H](C)C[C@@H](C)[C@H]1OC(=O)C[C@@]2(O)CC=C(C)[C@H](O2)/C(C)=C/CCC[C@@H](O[C@H]2C[C@@H](OC(N)=O)[C@H](O)[C@@H](C)O2)/C=C/[C@H](C)C[C@H]1C`, the IC50 in assay [1] turned out to be 0.09 µM; in assay [2], 8.3 µM; in assay [3], 5.8 µM; in assay [4], 15 µM; in assay [5], 12 µM; in assay [6], 64 µM.

On to `CCC(=O)[C@@H](C)[C@H](O)[C@H](C)C[C@@H](C)[C@H]1OC(=O)C[C@@]2(O)CC=C(C)[C@H](O2)/C(C)=C/CCC[C@@H](O[C@H]2C[C@@H](OC(N)=O)[C@H](O)[C@@H](C)O2)/C=C/[C@H](C)C[C@H]1C`, for which the IC50 in assay [1] stood at 60 µM.

With `CCC(=O)[C@@H](C)[C@@H](O)[C@H](C)C[C@@H](C)[C@H]1OC(=O)C[C@@]2(O)CC[C@H](C)[C@H](O2)/C(C)=C/CCC[C@@H](O[C@H]2C[C@@H](OC(N)=O)[C@H](O)[C@@H](C)O2)/C=C/[C@H](C)C[C@H]1C`, in assay [1], the half-inhibitory concentration (IC50) came to 0.94 µM.

Consider `COc1cccc2c1C(=O)c1c(O)c3c(c(O)c1C2=O)C[C@@](O)(C(=O)CO)C[C@@H]3O[C@H]1C[C@H](N)[C@H](O)[C@H](C)O1` [DOXORUBICIN HYDROCHLORIDE], for which, in assay [1], the IC50 stood at 0.14 µM.

These data come from ChEMBL document CHEMBL4813927, “Discovery of Venturicidin Congeners and Identification of the Biosynthetic Gene Cluster from Streptomyces sp. NRRL S-4” (J Nat Prod, 2021).
